Measured values taken from the supplement of paper PMC11061612.

Columns and labels:
Experiment in all cases: Bliss excess, mean over the matrix (fraction); higher = more synergy
PWR-1E (Non-Cancerous) = system: PWR-1E (Non-Cancerous)
Outline: (§1)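 Bliss excess equals the observed combination effect minus the expected value EA + EB − EA·EB, where EA and EB are the effects of each agent alone. Combination Emax is the second-highest inhibition within the matrix. Inhibition was scaled from CellTiter-Glo 2.0 luminescence, with 0 set by vehicle wells and 1 by blank wells, after 72 hours of two-drug dosing of cells plated in 1536-well plates.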

[1] = system: NCI-H727 (Other Solid Carcinomas)
Outline: as §1

[2] = system: NCI-H1915 (Non-Small Cell Lung Carcinoma)
Outline: as §1

D-263MG (Glioblastoma) = system: D-263MG (Glioblastoma)
Outline: as §1

[3] = system: RF-48 (B-Cell Non-Hodgkin's Lymphoma)
Outline: as §1

EW-24 (Ewing's Sarcoma) = system: EW-24 (Ewing's Sarcoma)
Outline: as §1

[4] = system: EoL-1-cell (Acute Myeloid Leukemia)
Outline: as §1

[5] = system: EFM-19 (Breast Carcinoma)
Outline: as §1

[6] = system: VA-ES-BJ (Other Solid Carcinomas)
Outline: as §1

NB69 (Neuroblastoma) = system: NB69 (Neuroblastoma)
Outline: as §1

[7] = system: HGC-27 (Gastric Carcinoma)
Outline: as §1

[8] = system: C-4-I (Cervical Carcinoma)
Outline: as §1

UACC-62 (Melanoma) = system: UACC-62 (Melanoma)
Outline: as §1

[9] = system: SW13 (Other Solid Carcinomas)
Outline: as §1

[10] = system: SU8686 (Pancreatic Carcinoma)
Outline: as §1

[11] = system: OVCAR-4 (Ovarian Carcinoma)
Outline: as §1

[12] = system: MLMA (Other Blood Carcinomas)
Outline: as §1

[13] = system: BT-549 (Breast Carcinoma)
Outline: as §1

[14] = system: AMO-1 (Plasma Cell Myeloma)
Outline: as §1

[15] = system: MIA-PaCa-2 (Pancreatic Carcinoma)
Outline: as §1

| Structure (SMILES) | Bliss excess (PWR-1E (Non-Cancerous)) | Bliss excess [1] | Bliss excess [2] | Bliss excess (D-263MG (Glioblastoma)) | Bliss excess [3] | Bliss excess (EW-24 (Ewing's Sarcoma)) | Bliss excess [4] | Bliss excess [5] | Bliss excess [6] | Bliss excess (NB69 (Neuroblastoma)) | Bliss excess [7] | Bliss excess [8] | Bliss excess (UACC-62 (Melanoma)) | Bliss excess [9] | Bliss excess [10] | Bliss excess [11] | Bliss excess [12] | Bliss excess [13] | Bliss excess [14] | Bliss excess [15] |
| --- | --- | --- | --- | --- | --- | --- | --- | --- | --- | --- | --- | --- | --- | --- | --- | --- | --- | --- | --- | --- |
| CC(=O)c1c(C)c2cnc(Nc3ccc(N4CCNCC4)cn3)nc2n(C2CCCC2)c1=O [Palbociclib] + Cn1cnc2c(F)c(Nc3ccc(Br)cc3Cl)c(C(=O)NOCCO)cc21 [Selumetinib] (first compound max 10 µM, 7x7, partner max 10 µM) | -0.0609 | -0.0139 | -0.034 | -0.0077 | -0.0489 | -0.0617 | 0.112 | -0.0313 | -0.0518 | 0.0829 | 0.0403 | -0.0119 | -0.0359 | 0.044 | -0.0971 | -0.0471 | 0.0398 | -0.0254 | 0.0844 | 0.0413 |
| C[C@@H]1COCCN1c1cc(C2([S@](C)(=N)=O)CC2)nc(-c2ccnc3[nH]ccc23)n1 [AZD6738] + O=C(c1cc(Cc2n[nH]c(=O)c3ccccc23)ccc1F)N1CCN(C(=O)C2CC2)CC1 [Olaparib] (first compound max 10 µM, 7x7, partner max 10 µM) | -0.0632 | -0.0317 | -0.0182 | 0.0604 | -0.0422 | -0.0177 | 0.0073 | 0.0141 | -0.0692 | 0.045 | 0.0231 | -0.0144 | 0.0235 | 0.0093 | -0.0231 | 0.0035 | -0.15 | 0.0032 | -0.0316 | -0.016 |
| CC1(C)CCC(CN2CCN(c3ccc(C(=O)NS(=O)(=O)c4ccc(NCC5CCOCC5)c([N+](=O)[O-])c4)c(Oc4cnc5[nH]ccc5c4)c3)CC2)=C(c2ccc(Cl)cc2)C1 [Venetoclax] + C=CCn1c(=O)c2cnc(Nc3ccc(N4CCN(C)CC4)cc3)nc2n1-c1cccc(C(C)(C)O)n1 [AZD1775] (first compound max 1 µM, partner max 1 µM) | -0.0347 | 0.0475 | -0.009 | 0.0494 | 0.0016 | 0.0351 | 0.0156 | -0.0335 | -0.0373 | -0.282 | -0.0252 | -0.0535 | 0.0405 | 0.0496 | -0.0317 | 0.0002 | 0.0421 | -0.0152 | 0.0861 | 0.0944 |
| CS(=O)(=O)CCNCc1ccc(-c2ccc3ncnc(Nc4ccc(OCc5cccc(F)c5)c(Cl)c4)c3c2)o1 [Lapatinib] + NC1(c2ccc(-c3nc4ccn5c(=O)[nH]nc5c4cc3-c3ccccc3)cc2)CCC1 [MK-2206] (first compound max 10 µM, 7x7, partner max 10 µM) | 0.0309 | 0.0172 |  | -0.0222 | 0.0003 | 0.0118 | 0.0098 | 0.0455 |  | 0.0688 | -0.0156 |  | 0.0426 | -0.0229 |  |  | -0.093 | -0.0275 | -0.048 | 0.0112 |
| Cc1c2c(nn1C)CSCc1cc(n(C)n1)CSc1cc(c3ccccc3c1)OCCCc1c(C(=O)O)n(C)c3c-2c(Cl)ccc13 [AZD5991] + Cn1cnc2c(F)c(Nc3ccc(Br)cc3Cl)c(C(=O)NOCCO)cc21 [Selumetinib] (first compound max 1 µM, 7x7, partner max 3 µM) | -0.0294 | 0.0213 | 0.0375 | -0.0318 | -0.0095 | -0.017 | 0.0751 |  | 0.0207 | 0.0377 | 0.033 | 0.132 | -0.0465 | -0.0006 | 0.0084 | 0.0473 | 0.0463 | 0.0056 | 0.0129 | 0.0197 |
| CCc1c2c(nc3ccc(O)cc13)-c1cc3c(c(=O)n1C2)COC(=O)[C@]3(O)CC [SN-38] + O=C(c1cc(Cc2n[nH]c(=O)c3ccccc23)ccc1F)N1CCN(C(=O)C2CC2)CC1 [Olaparib] (first compound max 0.3 µM, 7x7, partner max 10 µM) |  | -0.0075 |  | 0.0617 | 0.0259 | 0.0359 | 0.135 | 0.0496 | -0.0117 | 0.0236 | -0.0468 | 0.055 | 0.0203 | 0.0364 |  | -0.0234 | 0.038 | 0.0589 | 0.0023 | 0.0701 |
| C[C@@H](Nc1cc(F)cc(F)c1)c1cc(C(=O)N(C)C)cc2c(=O)cc(N3CCOCC3)oc12 [AZD8186] + C1CN(CCC1(C(=O)N[C@@H](CCO)C2=CC=C(C=C2)Cl)N)C3=NC=NC4=C3C=CN4 [AZD5363] (first compound max 10 µM, 7x7, partner max 10 µM) |  | -0.0149 |  | -0.0348 | -0.033 | -0.0033 | 0 | -0.0075 |  | 0.0248 |  |  | -0.0382 | 0.0092 |  |  | -0.0797 | -0.0011 | 0.0309 | 0.0056 |
